Measurements taken from patent US20260028390A1, “ALPHA1-ANTITRYPSIN FOR USE IN THE TREATMENT OF DISEASES OR DISORDERS OF THE NERVOUS SYSTEM SUCH AS CHRONIC INFLAMMATORY DEMYELINATING POLYNEUROPATHY” (Ageronix SA, priority 2022, published 2026).
“And” between values parts separate entries of the source, which are not always exact repeats. Identical values can stand only once.

Legend:
[1] = system: plasma TNFα; assay: Plasma TNFα quantification, CIDP mouse model; type: in vivo; conditions: for Plasma TNFα concentration (Mean ± SD): CIDP mice; for TNFα conc: per animal, listed as hAAT
Method: (§1) C57BL/6 mice were received at 8 weeks of age and housed under controlled conditions for the duration of the study. Three groups of 4 animals each were assigned to the following subcutaneous treatments twice daily at 7:00 AM and 7:00 PM for 2 weeks, from 20 to 35 days after the start of disease induction: • Wild type (WT) mice receiving the vehicle, 0.9% NaCl (positive control) • CIDP mice receiving the vehicle, 0.9% NaCl (negative control) • CIDP mice receiving human AAT (AAT), 50 mg/kg per injection
On the day preceding disease induction (Day 1), on the first (Day 20) and on the last (Day 35) treatment day, animals were subjected to blood samplings for the determination of neurofilament light chain (NfL), tumour necrosing factor alpha (TNFα) and TMPRSS5 levels, as described in FIG. 20. In addition, plasma levels of AAT were evaluated on the last treatment day.

[2] = system: CMT1A mice B6.Cg-Tg(PMP22)C3Fbas/J; assay: Rotarod latency to fall, CMT mice treated with AAT 180 mg/kg/day sc; type: in vivo, mouse
Method: CMT MOUSE MODEL: Non-humanized CMT1A mice B6.Cg-Tg(PMP22)C3Fbas/J (three copies of the PMP22 gene), three groups of 8 animals each.
DOSAGE: 180 mg/kg/day non-clinical grade AAT (Sigma)
ADMINISTRATION: Subcutaneous (SC) (bi-daily injection of 90 mg/kg)
(§2) Animals were received at 6 weeks of age and housed under controlled conditions for the duration of the study. The study comprised two groups of 8 transgenic mice (CMT mice) each and one group of 8 age matched wild type (WT) C57B16 mice, serving as positive control. Animals were assigned to the following subcutaneous treatments twice daily at 7:00 AM and 7:00 PM for 2 weeks, starting from 8 weeks and up to 10 weeks of age: • Wild-type (WT, no disease) mice receiving vehicle, 0.9% NaCl (positive control) • CMT1A mice receiving vehicle, 0.9% NaCl (negative control) • CMT1A mice receiving AAT at 90 mg/kg per injection (daily dose 180 mg/kg)
(§3) The efficacy parameters included: • neuromuscular performance (rotarod latency to fall and grip strength test), • sciatic nerve electrophysiology (CMAP amplitude and NCV) • cytokine (IL-6 and TNFα), as well as NfL analysis • sciatic nerve histology (number of axons and axonal diameter),
On the first day of treatment (Day 1), the neuromuscular and performance of animals was tested with a rotarod test and a grip strength test, as well as sciatic nerve electrophysiology test, which measured the compound muscle action potential (CMAP) and the nerve conduction velocity (NCV). After the last treatment on Day 15, these tests were repeated. Animals were then left untreated for 2 additional weeks to evaluate the duration of the treatment effect. Following the 2-week treatment-free period until 12 weeks of age (Day 30), the behavioural and electrophysiological tests were repeated.

[3] = system: plasma IL-6; assay: Plasma IL-6 concentration, CMT1A mouse study (50 mg/kg twice daily); type: in vivo; conditions: for Plasma IL-6 concentration (Mean ± SD): CMT1A mice
Method: (§4) Animals were split in 3 groups (wild-type control (subcutaneous 0.9% NaCl), CMT1A-vehicle (subcutaneous 0.9% NaCl), CMT1A-human alpha-1 antitrypsin (subcutaneous, twice daily, 50 mg/kg per injection)) of 3 mice each (3 weeks old males of 18±2.5 g at the beginning of study) and all went through the following protocol after 7 days of acclimation on site.
Starting from the age of 4 weeks, animals were subjected to blood samplings for the determination of interleukin-6 (IL-6) and tumor necrosing factor alpha (TNFα) levels, as described in FIG. 16.

[4] = system: CIDP mice; assay: Sciatic nerve electrophysiology (CMAP, NCV), CIDP mouse model; type: in vivo; conditions: for Compound muscle action potential (Mean ± SD) / Nerve conduction velocity (Mean ± SD): CIDP mice; for Electrophysiology, Amplitude / Electrophysiology, Conduction velocity / Electrophysiology, T1 distal / Electrophysiology, T2 proximal: per mouse, listed as hAAT
Method: as §1
Disease induction consisted in subcutaneous injection of mouse sciatic nerve homogenate in phosphate buffer saline (PBS)+Freund's adjuvant mixture at 10 mL/kg. For each treatment, 3 different body sites injections were performed. Control mice also received three subcutaneous injections of PBS+Freund's adjuvant at the same 3 different body sites.
On the first (Day 20) and last (Day 35) day of treatment, the neuromuscular and performance of animals was tested with a rotarod test, grip test and a sensory test using the Von Frey filament test, as well as sciatic nerve electrophysiology test. After the last treatment at Day 35, these tests were repeated, animals were sacrificed and the left sciatic nerve was sampled for histological evaluation of the number and size of […].

[5] = system: CMT1A mice B6.Cg-Tg(PMP22)C3Fbas/J; assay: Sciatic nerve histology, CMT mice treated with AAT 180 mg/kg/day sc; type: in vivo, mouse
From the text: as §2, §3

[6] = system: C3-PMP22 transgenic mice (CMT1A); assay: Sciatic nerve histology, CMT1A mouse study (50 mg/kg twice daily); type: in vivo; conditions: 8 weeks old
Method: as §4
On the first and last day of treatment, the neuromuscular performance of animals was tested with a rotarod test, grip test and sciatic nerve electrophysiology test. After the last treatment at 8 weeks, these tests were repeated, and animals were sacrificed and the left sciatic nerve was sampled for histological evaluation of the number and size of […].

[7] = Day 20, before compound treatment
[8] = 8 weeks old, CMT + hAAT 180 mg/kg/day SC, individual animal
[9] = Day 35, AAT 50 mg/kg sc twice daily
[10] = CMT1A + AAT 90 mg/kg sc twice daily
[11] = CMT mice, AAT 180 mg/kg daily dose
[12] = after 2 weeks treatment free period
[13] = CMT1A + AAT, 50 mg/kg twice daily sc
[14] = CMT1A mice, AAT 50 mg/kg sc twice daily

alpha1-antitrypsin (AAT) protein
plasma TNFα concentration compared to the CIDP+vehicle treated group ([1]; CIDP + AAT, day 35): significant decrease | Plasma TNFα concentration (Mean ± SD) ([1]; Day 1): 138.46 ± 18.58 pg/mL | Plasma TNFα concentration (Mean ± SD) ([1]; Day 20): 1397.62 ± 330.96 pg/mL | Plasma TNFα concentration (Mean ± SD) ([1]; Day 35): 1046.73 ± 144.47 pg/mL | Plasma TNFα, Mean Diff., CIDP + vehicle vs. CIDP + hAAT (Bonferroni's multiple comparisons test) [1, 7]: −187.9 | Plasma TNFα, Significant?, CIDP + vehicle vs. CIDP + hAAT (Bonferroni's multiple comparisons test) [1, 7]: No | Plasma TNFα, Mean Diff., CIDP + vehicle vs. CIDP + hAAT (Bonferroni's multiple comparisons test) ([1]; Day 35): 385.1 | TNFα conc, group MEAN ([1]; Day 1): 138.46 pg/mL | TNFα conc, group MEAN ([1]; Day 20): 1397.62 pg/mL | TNFα conc, group MEAN ([1]; Day 35): 1046.73 pg/mL | TNFα conc ([1]; Day 1 (before model induction)): 125.451 pg/mL and 165.501 pg/mL and 135.780 pg/mL and 127.127 pg/mL | TNFα conc ([1]; Day 20 (before compound treatment)): 1705.849 pg/mL and 1029.281 pg/mL and 1208.445 pg/mL and 1646.907 pg/mL | TNFα conc ([1]; Day 35): 910.997 pg/mL and 1161.216 pg/mL and 933.130 pg/mL and 1181.571 pg/mL | Rotarod latency (Mean ± SD) ([2]; 8 weeks old (baseline, Day 1), CMT1A + AAT): 38.76 ± 4.90 s | Rotarod latency, group Mean ([2]; 8 weeks old, CMT + hAAT 180 mg/kg/day SC, 8 animals): 62.63 s | Rotarod latency, Mean/animal [2, 8]: 63.15 s and 51.81 s and 53.95 s and 52.25 s and 38.51 s and 92.09 s and 74.02 s and 75.23 s | Rotarod latency, set 1 [2, 8]: 55.48 s and 48.88 s and 60.00 s and 47.76 s and 30.45 s and 96.29 s and 74.06 s and 68.88 s | Rotarod latency, set 2 [2, 8]: 61.08 s and 61.14 s and 48.80 s and 53.19 s and 62.45 s and 79.58 s and 65.45 s and 74.87 s | Rotarod latency, set 3 [2, 8]: 72.89 s and 45.41 s and 53.05 s and 55.82 s and 22.62 s and 100.40 s and 82.56 s and 81.93 s | Rotarod latency (Mean ± SD) ([2]; 10 weeks old (Day 15, after 2 weeks AAT 90 mg/kg sc twice daily)): 57.77 ± 19.19 s | rotarod latency to fall vs untreated group ([2]; 12 weeks of age, after 2-week treatment-free period): non-significantly different | Rotarod latency (Mean ± SD) ([2]; 12 weeks old (Day 30, after 2-week treatment-free period)): 36.92 ± 1.66 s | Plasma IL-6 concentration (Mean ± SD) ([3]; Day 1 (baseline)): 34.19 ± 1.67 pg/mL | Plasma IL-6 concentration (Mean ± SD) ([3]; Day 8): 39.10 ± 1.91 pg/mL | Plasma IL-6 concentration (Mean ± SD) ([3]; Day 14): 84.21 ± 4.727 pg/mL | Plasma IL-6 concentration (Mean ± SD) ([3]; Day 29): 90.20 ± 3.085 ^† pg/mL | plasma IL-6 concentration vs animals treated with vehicle ([3]; CMT + AAT, day 29): lower | NCV compared to the vehicle treated group ([4]; CIDP + AAT 50 mg/kg sc twice daily): increase | CMAP amplitude compared to the CIDP+vehicle treated group ([4]; CIDP + AAT 50 mg/kg sc twice daily, Day 35): increase | Compound muscle action potential (Mean ± SD) ([4]; Day 20 (baseline)): 3.73 ± 0.42 mV | Nerve conduction velocity (Mean ± SD) ([4]; Day 20 (baseline)): 13.10 ± 4.49 m/s | Compound muscle action potential (Mean ± SD) [4, 9]: 4.56 ± 0.76 mV | Nerve conduction velocity (Mean ± SD) [4, 9]: 16.85 ± 2.43 m/s | Electrophysiology, Amplitude, group MEAN ([4]; Day 20): 3.731 mV | Electrophysiology, Conduction velocity, group MEAN ([4]; Day 20): 13.098 m/s | Electrophysiology, Amplitude, group MEAN ([4]; Day 35): 4.558 mV | Electrophysiology, Conduction velocity, group MEAN ([4]; Day 35): 16.851 m/s | Electrophysiology, Amplitude ([4]; Day 20): 3.734 mV and 3.562 mV and 3.318 mV and 4.308 mV | Electrophysiology, Conduction velocity ([4]; Day 20): 16.096 m/s and 11.057 m/s and 7.775 m/s and 17.463 m/s | Electrophysiology, T1 distal ([4]; Day 20): 2.673 ms and 3.177 ms and 2.864 ms and 3.114 ms | Electrophysiology, T2 proximal ([4]; Day 20): 3.605 ms and 4.533 ms and 4.793 ms and 3.973 ms | Electrophysiology, Amplitude ([4]; Day 35): 3.490 mV and 5.146 mV and 5.068 mV and 4.527 mV | Electrophysiology, Conduction velocity ([4]; Day 35): 16.007 m/s and 16.112 m/s and 14.881 m/s and 20.402 m/s | Electrophysiology, T1 distal ([4]; Day 35): 4.089 ms and 3.902 ms and 4.177 ms and 3.970 ms | Electrophysiology, T2 proximal ([4]; Day 35): 5.026 ms and 4.833 ms and 5.185 ms and 4.705 ms | Sciatic nerve histology, Axonal diameter (Mean ± SD) [5, 10]: 3.84 ± 0.25 μm | Sciatic nerve histology, Axons/100 μm2 (Mean ± SD) [5, 10]: 26.30 ± 2.00 | Sciatic nerve histology, g-ratio (Mean ± SD) [5, 10]: 0.62 ± 0.16 | axonal diameter relative to untreated CMT animals [5, 11]: increase | g-ratio relative to untreated CMT animals [5, 11]: decrease | number of axons in the treated animals [5, 12]: significantly larger | size of the myelin sheath in the treated animals [5, 12]: significantly larger | axonal diameter compared to the vehicle treated group [6, 13]: significant increase | g-ratio compared to the vehicle treated group [6, 13]: decrease | total number of axons per surface compared to the vehicle group [6, 13]: Slight increase | Sciatic nerve histology, Axonal diameter (Mean ± SEM) [6, 14]: 2.53 ± 0.15 ^††† μm | Sciatic nerve histology, Axons/100 μm^2 (Mean ± SEM) [6, 14]: 39.33 ± 4.81 | Sciatic nerve histology, g-ratio (Mean ± SEM) [6, 14]: 0.63 ± 0.009 ^†††
